Measured values as given in US8703961B2, “Thiazole derivatives for the treatment of diseases such as cancer” (Merck Patent GmbH, priority 2009, dated 2014).

Assays:
Assay in all cases: filter binding kinase assay
Type in all cases: biochemical
CAMK1 = target: T1, CAMK1 (Homo sapiens, UniProt Q14012); conditions: derived from % inhibition at 1 μM
T1 construct: purchased
Summary of the method: (§1)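 Radioactivity retained on P81 phosphocellulose filters is the read-out. Before the reaction begins, test substance sits with kinase and substrate for 5 minutes at room temperature. The ATP solution added is 5, 20 or 50 […] according to the kinase, and acid quench ends the reaction.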

GSK3B (GSK3b) = target: T2, GSK3B (GSK3b) (Homo sapiens, UniProt P49841); conditions: for IC50: derived from % inhibition at 1 μM
T2 construct: purchased
Summary of the method: as §1

MAPK12 = target: T3, MAPK12 (Homo sapiens, UniProt P53778); conditions: derived from % inhibition at 1 μM
T3 construct: purchased
T3 sequence (P53778 1-367): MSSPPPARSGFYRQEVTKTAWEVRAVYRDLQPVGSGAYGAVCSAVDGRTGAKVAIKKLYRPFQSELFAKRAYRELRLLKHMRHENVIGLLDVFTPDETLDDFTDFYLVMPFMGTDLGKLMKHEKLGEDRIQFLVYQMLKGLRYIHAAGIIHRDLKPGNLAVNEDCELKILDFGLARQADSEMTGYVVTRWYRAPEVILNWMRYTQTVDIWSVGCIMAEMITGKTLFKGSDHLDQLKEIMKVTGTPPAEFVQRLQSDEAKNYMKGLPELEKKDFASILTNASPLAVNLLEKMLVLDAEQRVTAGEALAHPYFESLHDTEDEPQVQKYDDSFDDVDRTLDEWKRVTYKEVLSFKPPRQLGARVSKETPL
Summary of the method: as §1

NEK6 = target: T4, NEK6 (Homo sapiens, UniProt Q9HC98); conditions: derived from % inhibition at 1 μM
T4 construct: purchased
Summary of the method: as §1

RPS6KB1 = target: T5, RPS6KB1 (Homo sapiens, UniProt P23443); conditions: derived from % inhibition at 1 μM
T5 construct: purchased
Summary of the method: as §1

IKBKB = target: T6, IKBKB (Homo sapiens, UniProt O14920); conditions: derived from % inhibition at 1 μM
T6 construct: purchased
T6 sequence (O14920 1-756): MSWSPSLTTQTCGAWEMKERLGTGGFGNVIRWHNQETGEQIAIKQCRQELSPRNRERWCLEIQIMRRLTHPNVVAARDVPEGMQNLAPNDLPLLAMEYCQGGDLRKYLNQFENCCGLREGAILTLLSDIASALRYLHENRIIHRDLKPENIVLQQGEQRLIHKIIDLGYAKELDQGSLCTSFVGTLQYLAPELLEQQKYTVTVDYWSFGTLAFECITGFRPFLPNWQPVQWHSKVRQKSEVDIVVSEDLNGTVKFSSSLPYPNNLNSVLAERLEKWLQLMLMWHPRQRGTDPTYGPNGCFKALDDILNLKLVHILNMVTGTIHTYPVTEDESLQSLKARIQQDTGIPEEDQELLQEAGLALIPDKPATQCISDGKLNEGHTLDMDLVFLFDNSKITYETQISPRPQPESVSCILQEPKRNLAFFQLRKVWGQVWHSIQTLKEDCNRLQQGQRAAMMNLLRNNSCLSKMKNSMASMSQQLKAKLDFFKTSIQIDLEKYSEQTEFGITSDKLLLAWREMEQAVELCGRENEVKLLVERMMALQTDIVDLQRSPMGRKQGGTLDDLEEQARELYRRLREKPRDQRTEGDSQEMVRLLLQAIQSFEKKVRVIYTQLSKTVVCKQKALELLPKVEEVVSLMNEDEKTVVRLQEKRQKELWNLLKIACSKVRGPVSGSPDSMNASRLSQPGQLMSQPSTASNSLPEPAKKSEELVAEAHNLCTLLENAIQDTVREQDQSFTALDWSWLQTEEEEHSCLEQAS
Summary of the method: as §1

MAP2K1 (MKK1) = target: T7, MAP2K1 (MKK1) (Homo sapiens, UniProt Q02750); conditions: for IC50: derived from % inhibition at 1 μM
T7 construct: purchased
Summary of the method: as §1

MAP4K2 (GCK) = target: T8, MAP4K2 (GCK) (Homo sapiens, UniProt Q12851); conditions: for IC50: derived from % inhibition at 1 μM
T8 construct: purchased
T8 sequence (Q12851 1-820): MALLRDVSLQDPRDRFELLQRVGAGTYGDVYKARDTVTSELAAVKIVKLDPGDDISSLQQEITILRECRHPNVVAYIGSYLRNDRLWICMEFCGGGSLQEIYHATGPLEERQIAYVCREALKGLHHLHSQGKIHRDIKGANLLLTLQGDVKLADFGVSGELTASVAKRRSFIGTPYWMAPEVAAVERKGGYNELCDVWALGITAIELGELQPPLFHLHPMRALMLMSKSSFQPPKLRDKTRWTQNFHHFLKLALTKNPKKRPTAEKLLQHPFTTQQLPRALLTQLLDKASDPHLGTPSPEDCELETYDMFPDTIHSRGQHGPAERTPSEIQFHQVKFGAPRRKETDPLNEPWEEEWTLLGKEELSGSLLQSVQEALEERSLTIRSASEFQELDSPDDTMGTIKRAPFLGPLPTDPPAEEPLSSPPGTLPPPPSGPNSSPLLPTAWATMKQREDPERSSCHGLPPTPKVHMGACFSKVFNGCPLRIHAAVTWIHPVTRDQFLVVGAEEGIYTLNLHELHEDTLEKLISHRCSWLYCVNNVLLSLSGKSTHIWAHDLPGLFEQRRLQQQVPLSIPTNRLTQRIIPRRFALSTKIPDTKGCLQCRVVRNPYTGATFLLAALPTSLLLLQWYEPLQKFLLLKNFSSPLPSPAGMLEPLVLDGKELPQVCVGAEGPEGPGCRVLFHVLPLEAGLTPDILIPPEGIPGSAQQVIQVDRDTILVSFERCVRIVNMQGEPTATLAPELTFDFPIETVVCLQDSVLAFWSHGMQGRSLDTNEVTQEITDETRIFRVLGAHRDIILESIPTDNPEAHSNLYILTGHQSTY
Summary of the method: as §1

LCK = target: T9, LCK (Homo sapiens, UniProt P06239); conditions: derived from % inhibition at 1 μM
T9 construct: purchased
Summary of the method: as §1

PRKACA = target: T10, PRKACA (Homo sapiens, UniProt P17612); conditions: derived from % inhibition at 1 μM
T10 construct: purchased
Summary of the method: as §1

SYK = target: T11, SYK (Homo sapiens, UniProt P43405); conditions: derived from % inhibition at 1 μM
T11 construct: purchased
Summary of the method: as §1

MYLK = target: T12, MYLK (Homo sapiens, UniProt Q15746); conditions: derived from % inhibition at 1 μM
T12 construct: purchased
Summary of the method: as §1

T7 sequence (Q02750 whole entry, species assumed): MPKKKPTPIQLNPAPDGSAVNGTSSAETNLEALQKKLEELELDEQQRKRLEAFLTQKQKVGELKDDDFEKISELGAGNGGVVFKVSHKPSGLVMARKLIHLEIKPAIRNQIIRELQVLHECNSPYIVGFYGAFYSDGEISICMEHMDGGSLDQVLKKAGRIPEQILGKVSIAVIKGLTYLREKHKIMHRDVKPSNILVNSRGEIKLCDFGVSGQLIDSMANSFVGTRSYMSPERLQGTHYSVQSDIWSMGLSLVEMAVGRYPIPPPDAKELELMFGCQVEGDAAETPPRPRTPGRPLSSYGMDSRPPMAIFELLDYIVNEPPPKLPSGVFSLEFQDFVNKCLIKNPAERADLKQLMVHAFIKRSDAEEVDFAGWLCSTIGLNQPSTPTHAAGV
T5 sequence (P23443 whole entry, species assumed): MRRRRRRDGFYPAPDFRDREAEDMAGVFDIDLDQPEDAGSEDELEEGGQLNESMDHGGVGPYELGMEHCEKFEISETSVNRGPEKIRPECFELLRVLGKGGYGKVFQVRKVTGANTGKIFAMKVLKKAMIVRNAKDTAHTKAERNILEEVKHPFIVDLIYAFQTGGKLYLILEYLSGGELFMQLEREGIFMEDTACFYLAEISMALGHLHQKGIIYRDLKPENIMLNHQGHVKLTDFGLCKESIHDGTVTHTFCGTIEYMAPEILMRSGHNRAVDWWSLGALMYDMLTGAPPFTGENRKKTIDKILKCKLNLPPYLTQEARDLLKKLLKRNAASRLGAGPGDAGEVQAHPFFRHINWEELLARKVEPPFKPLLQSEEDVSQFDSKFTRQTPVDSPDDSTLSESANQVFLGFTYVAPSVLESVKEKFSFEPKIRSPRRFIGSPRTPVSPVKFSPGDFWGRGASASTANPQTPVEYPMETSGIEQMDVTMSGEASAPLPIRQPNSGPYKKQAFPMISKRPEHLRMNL
T2 sequence (P49841 whole entry, species assumed): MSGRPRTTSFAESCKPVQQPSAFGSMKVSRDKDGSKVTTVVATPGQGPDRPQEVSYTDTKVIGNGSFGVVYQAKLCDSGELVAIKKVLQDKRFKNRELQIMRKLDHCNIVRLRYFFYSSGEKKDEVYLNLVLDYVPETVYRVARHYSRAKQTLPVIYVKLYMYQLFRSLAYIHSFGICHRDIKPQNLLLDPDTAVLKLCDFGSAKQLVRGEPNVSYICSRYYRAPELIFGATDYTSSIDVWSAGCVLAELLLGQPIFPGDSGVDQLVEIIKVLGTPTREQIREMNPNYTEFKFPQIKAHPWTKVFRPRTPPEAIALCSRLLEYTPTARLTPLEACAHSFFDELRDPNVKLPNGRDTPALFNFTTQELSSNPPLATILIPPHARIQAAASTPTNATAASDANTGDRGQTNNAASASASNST
T4 sequence (Q9HC98 whole entry, species assumed): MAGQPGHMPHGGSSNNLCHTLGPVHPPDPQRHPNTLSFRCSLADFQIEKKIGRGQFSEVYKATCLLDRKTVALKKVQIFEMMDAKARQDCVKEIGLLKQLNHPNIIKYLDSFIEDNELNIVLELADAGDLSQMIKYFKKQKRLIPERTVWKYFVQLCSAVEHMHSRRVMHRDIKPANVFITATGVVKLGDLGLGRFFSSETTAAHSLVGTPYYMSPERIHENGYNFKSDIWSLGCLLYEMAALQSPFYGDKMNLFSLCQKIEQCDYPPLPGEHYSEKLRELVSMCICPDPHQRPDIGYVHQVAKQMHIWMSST
T9 sequence (P06239 whole entry, species assumed): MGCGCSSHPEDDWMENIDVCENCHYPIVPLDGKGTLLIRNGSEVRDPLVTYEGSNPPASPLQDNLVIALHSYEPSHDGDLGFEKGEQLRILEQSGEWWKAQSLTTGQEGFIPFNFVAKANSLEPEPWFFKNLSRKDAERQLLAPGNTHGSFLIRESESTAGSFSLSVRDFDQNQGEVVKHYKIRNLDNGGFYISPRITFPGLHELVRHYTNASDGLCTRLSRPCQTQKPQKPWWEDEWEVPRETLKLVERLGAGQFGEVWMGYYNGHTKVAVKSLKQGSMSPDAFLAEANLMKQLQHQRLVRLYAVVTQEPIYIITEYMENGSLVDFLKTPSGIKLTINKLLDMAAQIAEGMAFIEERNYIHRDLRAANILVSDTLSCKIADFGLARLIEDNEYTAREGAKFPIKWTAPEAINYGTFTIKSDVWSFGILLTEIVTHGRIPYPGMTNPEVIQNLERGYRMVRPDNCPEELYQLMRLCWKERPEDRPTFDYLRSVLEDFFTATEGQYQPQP

| Compound | IC50 (CAMK1) | IC50 (GSK3B (GSK3b)) | IC50 (MAPK12) | IC50 (NEK6) | IC50 (RPS6KB1) | IC50 (IKBKB) | IC50 (MAP2K1 (MKK1)) | IC50 (MAP4K2 (GCK)) | IC50 (LCK) | IC50 (PRKACA) | IC50 (SYK) | IC50 (MYLK) | remaining activity at 1 µM (GSK3B (GSK3b); read-out: residual kinase activity GSK3b) | remaining activity at 1 µM (MAP2K1 (MKK1); read-out: residual kinase activity MKK1) | remaining activity at 1 µM (MAP4K2 (GCK); read-out: residual kinase activity GCK) |
| --- | --- | --- | --- | --- | --- | --- | --- | --- | --- | --- | --- | --- | --- | --- | --- |
| c1ccc(Cc2c[nH]c3ncsc23)cc1 [Compound A7, 6-benzyl-4H-pyrrolo[2,3-d]thiazole] | 1000 to 10000 nM | 1000 to 10000 nM | > 1000 nM | 10000 to 100000 nM | 1000 to 10000 nM | 1000 to 10000 nM | 1000 to 10000 nM | 1000 to 10000 nM | 10000 to 100000 nM | > 1000 nM | > 1000 nM | > 1000 nM | – | – | – |
| Nc1ncsc1C#Cc1cnc2[nH]ccc2c1 [Compound A22, 5-(1H-pyrrolo[2,3-b]pyridin-5-ylethynyl)thiazol-4-ylamine] | 10000 to 100000 nM | 10 to 1000 nM | 1000 to 10000 nM | > 1000 nM | 1000 to 10000 nM | 10000 to 100000 nM | 10 to 1000 nM | 10 to 1000 nM | > 1000 nM | 1000 to 10000 nM | 10000 to 100000 nM | > 1000 nM | 9% | 43% | 31% |
| CC(C)(C)OC(=O)Nc1nc(-c2ccncc2)sc1C#CCN1CCOCC1 [Compound A25, tert-butyl[5-(3-morpholin-4-ylprop-1-ynyl)-2-pyridin-4-ylthiazol-4-yl]-carbamate] | 1000 to 10000 nM | > 1000 nM | 10000 to 100000 nM | 1000 to 10000 nM | > 1000 nM | > 1000 nM | 1000 to 10000 nM | > 1000 nM | > 1000 nM | > 1000 nM | > 1000 nM | > 1000 nM | – | – | – |
| CC(C)(C)OC(=O)Nc1ncsc1C#CCN1C(=O)c2ccccc2C1=O [Compound A26, tert-butyl{5-[3-(1,3-dioxo-1,3-dihydroisoindol-2-yl)prop-1-ynyl]-thiazol-4-yl}carbamate] | > 1000 nM | 1000 to 10000 nM | 10000 to 100000 nM | 10000 to 100000 nM | > 1000 nM | > 1000 nM | 1000 to 10000 nM | 1000 to 10000 nM | > 1000 nM | 10000 to 100000 nM | > 1000 nM | > 1000 nM | – | – | – |
| Nc1ncsc1C#Cc1cccc(O)c1 [Compound A27, 3-(4-aminothiazol-5-ylethynyl)phenol] | 1000 to 10000 nM | 1000 to 10000 nM | 1000 to 10000 nM | 10000 to 100000 nM | 1000 to 10000 nM | 1000 to 10000 nM | > 1000 nM | 1000 to 10000 nM | 1000 to 10000 nM | 1000 to 10000 nM | 10000 to 100000 nM | 1000 to 10000 nM | – | – | – |
